Results reported in ChEMBL document CHEMBL1201862, “PubChem BioAssay data set” (2004).
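Each compound was tested at five concentrations against cells in 96-well plates for 48 hours. GI50 marks 50% less growth.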 Active and inactive are the calls of the source. No stated cut-off is given here; in the data, active = GI50 up to about 1.1 µM and inactive = higher.

What was measured:
Assay in all cases: inhibition of tumour cell growth, NCI panel, 48 h
[1] = tested on: NCI-H460
[2] = tested on: Malme-3M
[3] = tested on: SN12C
[4] = tested on: SR
[5] = tested on: EKVX
[6] = tested on: CAKI-1
[7] = tested on: NCI-H23
[8] = tested on: SK-OV-3
[9] = tested on: HCT-116
[10] = tested on: SF-268
[11] = tested on: A549
[12] = tested on: IGROV-1
[13] = tested on: SK-MEL-28
[14] = tested on: OVCAR-4
[15] = tested on: RPMI-8226
[16] = tested on: NCI-H226

Measured: GI50

N/C(=N\O)N/N=C/c1ccc(C(F)(F)F)cc1
inactive: [1] 5.04 µM | [2] 16.7 µM | [3] 24.7 µM | [4] 6.85 µM | [5] 4.23 µM | [6] 6.46 µM | [7] 15 µM | [8] 6.98 µM | [9] 32.9 µM | [10] 6.61 µM | [11] 5.15 µM | [12] 7.41 µM | [13] 62.4 µM | [14] 4.86 µM

COC1OC(CO)C(O)C(O)C1Br (stereo not given)
inactive: [1] > 100 µM | [2] > 100 µM | [3] > 100 µM | [4] > 100 µM | [6] > 100 µM | [7] > 100 µM | [9] > 100 µM | [10] > 100 µM | [11] > 100 µM | [12] > 100 µM | [13] > 100 µM | [15] > 100 µM | [14] > 100 µM

NC(=O)CCC(NC(=O)Cc1ccccc1)C(=O)O.NC(CCC(=O)NC(=O)Cc1ccccc1)C(=O)O (stereo not given)
inactive: [2] > 8130 µM | [3] > 8130 µM | [4] > 8130 µM | [5] > 8130 µM | [6] > 8130 µM | [7] > 8130 µM | [8] > 8130 µM | [9] > 8130 µM | [10] > 8130 µM | [11] > 8130 µM | [12] > 8130 µM | [13] > 8130 µM | [15] > 8130 µM | [14] > 8130 µM

Cn1c(C2CC(C)(C)c3c2c2ccccc2n3C)cc2ccccc21 (stereo not given)
inactive: [1] > 304 µM | [2] > 304 µM | [3] > 304 µM | [4] > 304 µM | [5] > 304 µM | [6] 192 µM | [7] > 304 µM | [8] > 304 µM | [9] 30.1 µM | [10] > 304 µM | [11] > 304 µM | [12] 225 µM | [13] > 304 µM | [15] 118 µM | [16] 180 µM

O=Cc1cn(S(=O)(=O)c2ccccc2)c2ccccc12
inactive: [1] > 100 µM | [2] 34.5 µM | [3] 42.4 µM | [4] 20.1 µM | [5] > 100 µM | [7] 26.4 µM | [8] > 100 µM | [9] 20 µM | [10] 25.5 µM | [11] > 100 µM | [12] > 100 µM | [13] 32.4 µM | [15] 20.8 µM | [14] 33.6 µM | [16] 70.3 µM

Cc1ccc(C)c2c1CCc1cc3ccccc3nc1-2
inactive: [1] > 100 µM | [2] > 100 µM | [3] > 100 µM | [5] > 100 µM | [6] > 100 µM | [7] > 100 µM | [8] > 100 µM | [9] > 100 µM | [10] > 100 µM | [11] > 100 µM | [12] > 100 µM | [13] > 100 µM | [15] > 100 µM | [14] > 100 µM

O=C1C2=C(c3ccccc31)C(c1ccc(F)cc1)N1C(=O)CCSC1=N2 (stereo not given)
inactive: [1] > 100 µM | [2] > 100 µM | [3] 42.9 µM | [5] > 100 µM | [6] 69 µM | [7] > 100 µM | [8] > 100 µM | [9] 95.7 µM | [10] > 100 µM | [11] > 100 µM | [12] > 100 µM | [13] > 100 µM | [15] 49.2 µM | [14] 56 µM | [16] 93.3 µM
